Molecular target: T1, Axl (Homo sapiens, UniProt P30530)
T1 construct: endogenous in cells; host or cells: HeLa cells
T1 sequence (P30530 26-894): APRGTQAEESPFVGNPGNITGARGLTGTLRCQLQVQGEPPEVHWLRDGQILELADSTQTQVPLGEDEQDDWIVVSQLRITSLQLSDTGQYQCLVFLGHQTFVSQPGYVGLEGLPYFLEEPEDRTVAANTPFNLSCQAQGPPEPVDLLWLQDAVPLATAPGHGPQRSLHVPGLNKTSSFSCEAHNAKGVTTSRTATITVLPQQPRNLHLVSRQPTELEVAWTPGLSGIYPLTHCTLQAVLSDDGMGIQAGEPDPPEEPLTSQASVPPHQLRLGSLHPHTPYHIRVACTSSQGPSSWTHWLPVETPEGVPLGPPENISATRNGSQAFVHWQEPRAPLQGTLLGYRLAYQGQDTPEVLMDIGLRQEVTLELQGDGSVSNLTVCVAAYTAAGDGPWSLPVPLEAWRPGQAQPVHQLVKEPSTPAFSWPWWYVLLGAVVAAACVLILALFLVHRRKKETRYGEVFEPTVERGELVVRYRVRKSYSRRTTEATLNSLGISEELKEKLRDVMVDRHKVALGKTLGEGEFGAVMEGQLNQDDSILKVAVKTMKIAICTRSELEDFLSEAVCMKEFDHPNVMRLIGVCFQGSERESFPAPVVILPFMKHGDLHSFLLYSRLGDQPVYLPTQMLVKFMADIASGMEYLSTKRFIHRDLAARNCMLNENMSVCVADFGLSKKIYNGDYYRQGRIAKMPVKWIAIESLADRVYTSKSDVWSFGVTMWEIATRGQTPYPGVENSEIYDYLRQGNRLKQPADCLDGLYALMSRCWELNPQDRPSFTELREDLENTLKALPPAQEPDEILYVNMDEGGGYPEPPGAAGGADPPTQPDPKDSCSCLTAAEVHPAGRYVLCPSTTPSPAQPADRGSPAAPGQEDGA
Experiment: Phospho-Akt in-cell Western assay (inhibition of Axl activity)
Type: cell-based
Outline: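 HeLa cells on poly-L-lysine, starved 24 h in 0.5% FCS DMEM with Axl/Fc 500 ng/mL, pre-treated with compound 1 h at 37° C. Axl stimulated 5 min by anti-Axl/anti-mouse antibody cross-linking. Fixed cells probed with anti-phospho-Akt and HRP secondary, chemiluminescence read.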

[1] = inhibition of Axl activity, Table 1
[2] = inhibition of Axl activity, phospho-Akt in-cell Western assay, Table 1

| IC50 [1] [µM] | SMILES | further results |
| --- | --- | --- |
| < 1 | COc1cccc(C(=O)n2nc(Nc3ccc(OCCN4CCCCC4)cc3)nc2N)c1 [compound 80, 5-amino-1-(3-(methoxy)phenyl)carbonyl-3-[4-[2-(piperidin-1-yl)ethoxy]phenylamino]-1H-1,2,4-triazole] |  |
| 1 to 10 | COc1cccc(C(=O)n2nc(Nc3ccc(N4CCOCC4)cc3)nc2N)c1 [compound 81, 5-amino-1-(3-(methoxy)phenyl)carbonyl-3-(4-(morpholin-4-yl)phenylamino)-1H-1,2,4-triazole] |  |
|  | CC(C)Oc1ccc(C(=O)n2nc(Nc3ccc(OCCN(C)C)cc3)nc2N)cc1 [compound 85, 5-amino-3-[4-[2-(dimethylamino)ethoxy]phenylamino]-1-(4-(iso-propoxy)phenyl)carbonyl-1H-1,2,4-triazole] | IC50 [2]: < 1 µM |
|  | CN(C)CCOc1ccc(Nc2nc(N)n(C(=O)c3ccc4c(c3)NC(=O)C(C)(C)O4)n2)cc1 [compound 86, 5-amino-3-[4-[2-(dimethylamino)ethoxy]phenylamino]-1-(2,2-dimethyl-2H-benzo[b][1,4]oxazin-3(4H)-on-6-yl)carbonyl-1H-1,2,4-triazole] | IC50 (Table 3, Hela cells, Axl antibody cross-linking stimulation, phospho-Akt chemiluminescence): < 1 µM |
|  | CN(C)CCOc1ccc(Nc2nc(N)n(C(=O)c3ccc(N(C)C)cc3)n2)cc1 [compound 87, 5-amino-3-[4-[2-(dimethylamino)ethoxy]phenylamino]-1-(4-(dimethylamino)phenyl)carbonyl-1H-1,2,4-triazole] | IC50 [2]: < 1 µM |
|  | Cc1ccc(C(=O)n2nc(Nc3ccc(OCCCN(C)C)cc3)nc2N)cc1 [compound 91, 5-amino-3-[4-[3-(dimethylamino)propoxy]phenylamino]-1-(4-(methyl)phenyl)carbonyl-1H-1,2,4-triazole] | IC50 [2]: 1 to 10 µM |
|  | Nc1nc(Nc2ccc3c(c2)OCCO3)n(C(=O)c2ccccc2)n1 [compound 92, 3-amino-5-(1,4-benzodioxan-6-yl)amino-1-phenylcarbonyl-1H-1,2,4-triazole] | IC50 (Table 2, Hela cells, Axl antibody cross-linking stimulation, phospho-Akt chemiluminescence): 1 to 10 µM |
|  | COC(=O)n1nc(N)nc1Nc1ccc2c(c1)OCCO2 [compound 93, 3-amino-5-(1,4-benzodioxan-6-yl)amino-1-methoxycarbonyl-1H-1,2,4-triazole] | IC50 (Table 8, Hela cells, Axl antibody cross-linking stimulation, phospho-Akt chemiluminescence): > 20 µM |
| > 20 | Nc1nc(Nc2ccc3c(c2)OCCO3)nn1C(=O)c1ccccc1Cl [compound 94, 5-amino-1-(2-(chloro)phenyl)carbonyl-3-(1,4-benzodioxan-6-yl)amino-1H-1,2,4-triazole] |  |
| 1 to 10 | Nc1nc(Nc2ccc3c(c2)OCCO3)nn1C(=O)c1ccc(Cl)cc1 [compound 95, 5-amino-1-(4-(chloro)phenyl)carbonyl-3-(1,4-benzodioxan-6-yl)amino-1H-1,2,4-triazole] |  |
| 1 to 10 | Cc1cccc(C(=O)n2nc(Nc3ccc4c(c3)OCCO4)nc2N)c1 [compound 96, 5-amino-3-(1,4-benzodioxan-6-yl)amino-1-(3-(methyl)phenyl)carbonyl-1H-1,2,4-triazole] |  |
| 10 to 20 | Cc1ccccc1C(=O)n1nc(Nc2ccc3c(c2)OCCO3)nc1N [compound 97, 5-amino-3-(1,4-benzodioxan-6-yl)amino-1-(2-(methyl)phenyl)carbonyl-1H-1,2,4-triazole] |  |
| 1 to 10 | COc1cccc(C(=O)n2nc(Nc3ccc4c(c3)OCCO4)nc2N)c1 [compound 98, 5-amino-3-(1,4-benzodioxan-6-yl)amino-1-(3-(methoxy)phenyl)carbonyl-1H-1,2,4-triazole] |  |
| 10 to 20 | Nc1nc(Nc2ccc3c(c2)OCCO3)nn1C(=O)c1ccccc1F [compound 99, 5-amino-3-(1,4-benzodioxan-6-yl)amino-1-(2-(fluoro)phenyl)carbonyl-1H-1,2,4-triazole] |  |
| > 20 | Nc1nc(Nc2ccc3c(c2)OCCO3)nn1C(=O)c1ccc(F)cc1 [compound 100, 5-amino-3-(1,4-benzodioxan-6-yl)amino-1-(4-(fluoro)phenyl)carbonyl-1H-1,2,4-triazole] |  |
| 1 to 10 | Nc1nc(Nc2ccc3c(c2)OCCO3)nn1C(=O)c1cccc(Cl)c1 [compound 101, 5-amino-1-(3-(chloro)phenyl)carbonyl-3-(1,4-benzodioxan-6-yl)amino-1H-1,2,4-triazole] |  |
| 1 to 10 | COc1ccc(C(=O)n2nc(Nc3ccc4c(c3)OCCO4)nc2N)cc1 [compound 102, 5-amino-3-(1,4-benzodioxan-6-yl)amino-1-(4-(methyloxy)phenyl)carbonyl-1H-1,2,4-triazole] |  |
|  | CCOC(=O)c1cc2cc(Nc3nc(N)n(C(=O)c4cccc(OC(C)C)c4)n3)ccc2o1 [compound 103, 5-amino-3-(2-(ethoxycarbonyl)benzofuran-5-yl)amino-1-(3-(iso-propoxy)phenyl)carbonyl-1H-1,2,4-triazole] | IC50 (Table 5, Hela cells, Axl antibody cross-linking stimulation, phospho-Akt chemiluminescence): > 20 µM |
| 1 to 10 | Cc1ccc(C(=O)n2nc(Nc3ccc4c(c3)OCCO4)nc2N)cc1 [compound 104, 5-amino-3-(1,4-benzodioxan-6-yl)amino-1-(4-(methyl)phenyl)carbonyl-1H-1,2,4-triazole] |  |
| > 20 | Nc1nc(Nc2ccc3c(c2)OCCO3)nn1C(=O)c1cccc(F)c1 [compound 105, 5-amino-3-(1,4-benzodioxan-6-yl)amino-1-(3-(fluoro)phenyl)carbonyl-1H-1,2,4-triazole] |  |
| > 20 | COc1ccccc1C(=O)n1nc(Nc2ccc3c(c2)OCCO3)nc1N [compound 106, 5-amino-3-(1,4-benzodioxan-6-yl)amino-1-(2-(methyloxy)phenyl)carbonyl-1H-1,2,4-triazole] |  |
| 1 to 10 | CC(C)Oc1ccc(Nc2nc(N)n(C(=O)c3ccc(OC(C)C)cc3)n2)cc1 [compound 111, 5-amino-3-[4-(iso-propoxy)phenylamino]-1-(4-(iso-propoxy)phenyl)carbonyl-1H-1,2,4-triazole] |  |
| 1 to 10 | CC(C)Oc1cccc(C(=O)n2nc(Nc3ccc4c(c3)OCCO4)nc2N)c1 [compound 112, 5-amino-3-(1,4-benzodioxan-6-yl)amino-1-(3-(iso-propoxy)phenyl)carbonyl-1H-1,2,4-triazole] |  |
| 1 to 10 | CC(C)Oc1ccc(C(=O)n2nc(Nc3ccc4c(c3)OCCO4)nc2N)cc1 [compound 113, 5-amino-3-(1,4-benzodioxan-6-yl)amino-1-(4-(iso-propoxy)phenyl)carbonyl-1H-1,2,4-triazole] |  |
| 1 to 10 | CCOc1ccc(C(=O)n2nc(Nc3ccc4c(c3)OCCO4)nc2N)cc1 [compound 114] |  |

| SMILES | IC50 [1] [µM] | further results |
| --- | --- | --- |
| CN(C)CCOc1ccc(Nc2nc(N)n(C(=O)c3ccc(OC(C)(C)C)cc3)n2)cc1 [compound 83, 5-amino-3-[4-[2-(dimethylamino)ethoxy]phenylamino]-1-(4-(tert-butoxy)phenyl)carbonyl-1H-1,2,4-triazole] | < 1 |  |
| CC(=O)Oc1ccc(C(=O)n2nc(Nc3ccc4c(c3)OCCO4)nc2N)cc1 [compound 109, 1-(4-(Acetoxy)phenyl)carbonyl-5-amino-3-(1,4-benzodioxan-6-yl)amino-1H-1,2,4-triazole] | 1 to 10 |  |
| CC(=O)Oc1cccc(C(=O)n2nc(Nc3ccc4c(c3)OCCO4)nc2N)c1 [compound 110, 1-(3-(Acetoxy)phenyl)carbonyl-5-amino-3-(1,4-benzodioxan-6-yl)amino-1H-1,2,4-triazole] | 1 to 10 |  |
| CC(C)Oc1ccc(C(=O)n2nc(Nc3cccc(OC4CCCC4)c3)nc2N)cc1 [compound 116, 5-amino-3-[3-(cyclopentoxy)phenylamino]-1-(4-(iso-propoxy)phenyl)carbonyl-1H-1,2,4-triazole] | > 20 |  |
